Data: patent EP0720988A1, “Pseudopeptides containing trifluoromethyl substituted 2-azabicyclooctane” (BAYER AG, priority 1995, dated 1996)
Where a name gives a salt, the structure may show the parent alone. Read-outs that look alike come from different tables or passages of the source.

Key:
HIV-1-Protease [1] = molecular target: T1, HIV-1-Protease (Human immunodeficiency virus type 1 group M subtype B, UniProt P04585); assay: HIV-specific protease enzyme assay (purified HIV protease, synthetic peptide substrate, RP-HPLC analysis of cleavage products); format: biochemical; conditions: synthetic peptide imitating a Gag precursor cleavage site
T1 construct: Gereinigte HIV-Protease wurde mit synthetischem Peptid

HIV = HIV infection in cell culture (PBL), suppression of virus-induced syncytia formation; format: cell-based; conditions: 50% suppression of virus-induced syncytia, read between day 3 and 6 after infection
Procedure: HIV-Infektion in Zellkultur
Der HIV-Test wurde mit geringen Modifikationen nach der Methode von Pauwels et al. [vgl. Journal of Virological Methods 20, (1988), 309-321] durchgeführt.
Normale menschliche Blutlymphozyten (PBL's) wurden über Ficoll-Hypaque angereichert und im RPMI 1640, 20% fötales Kälberserum mit Phytohaemagglutinin (90 µg/ml) und Interleukin-2 (40 U/ml) stimuliert. Zur Infektion mit dem in-fektiösen HIV wurden PBL's pelletiert und das Zellpellet wurde anschließend in 1 ml HIV-Virusadsorptionslösung suspendiert und 1 Stunde bei 37°C inkubiert.
Die Virusadsorptionslösung wurde zentrifugiert und das infizierte Zellpellet in Wachstumsmedium aufgenommen, so daß 1 x 10^5 Zellen pro ml eingestellt waren. Die derart infizierten Zellen wurden zu 1 x 10^4 Zellen/Napf in die Näpfe von 96er Mikrotiterplatten pipettiert.
Die erste vertikale Reihe der Mikrotiterplatte enthielt nur Wachstumsmedium und Zellen, die nicht infiziert, aber ansonsten genauso wie oben beschrieben, behandelt worden waren (Zellkontrolle). Die zweite vertikale Reihe der Mikrotiterplatte erhielt nur HIV-infizierte Zellen (Viruskontrolle) in Wachstumsmedium. Die übrigen Näpfe enthielten die erfindungsgemäßen Verbindungen in unterschiedlichen Konzentrationen, ausgehend von den Näpfen der 3. vertikalen Reihe der Mikrotiterplatte, von der die Prüfsubstanzen in 2er Schritten 2^10fach verdünnt wurden.
Die Testansätze wurden so lange bei 37°C inkubiert, bis in der unbehandelten Viruskontrolle die für das HIV typische Syncytienbildung auftrat (zwischen Tag 3 und 6 nach Infektion), die dann mikroskopisch ausgewertet wurde. In der unbehandelten Viruskontrolle resultierten unter diesen Testbedingungen etwa 20 Syncytien, währen die unbehandelte Zellkontrolle keine Syncytien aufwies.
Die IC50-Werte wurden als die Konzentration der behandelten und infizierten Zellen ermittelt, bei der 50% (ca. 10 Syncytien) der virusinduzierten Syncytien durch die Behandlung mit der erfindungsgemäßen Verbindung unterdrückt waren.

HIV-1-Protease [2] = molecular target: T1, HIV-1-Protease; assay: HIV-specific protease enzyme assay (purified HIV protease, synthetic peptide substrate, RP-HPLC analysis of cleavage products); format: biochemical; conditions: synthetic peptide imitating a Gag precursor cleavage site, 50% inhibition of protease activity
Source text: Es wurde überraschend gefunden, daß die Verbindungen der allgemeinen Formel (I) eine außerordentlich starke Wirkung gegen Retroviren besitzen. Dies wird mit einem HIV-spezifischen Protease-Enzymtest belegt.
Die Ergebnisse der unten aufgeführten Beispiele wurden nach dem in den folgenden Literaturangaben [vgl. Hansen, J., Billich, S., Schulze, T., Sukrow, S. and Mölling, K. (1988), EMBO Journal, Vol, 7, No. 6, pp. 1785 - 1791] beschriebenen HIV-Testsystem ermittelt: Gereinigte HIV-Protease wurde mit synthetischem Peptid, das eine Schnittstelle im Gag-Precursor-Protein imitiert und eine in vivo-Spaltstelle der HIV-Protease darstellt, inkubiert. Die entstandenen Spaltprodukte des synthetischen Peptids wurden über Reverse Phase High Performance Liquid Chromatography (RP-HPLC) analysiert. Die angegebenen IC50-Werte beziehen sich auf die Substanzkonzentration, die unter den oben aufgeführten Testbedingungen eine 50%ige Hemmung der Protease-Aktivität bewirkt.

[3] = read-out: PBL IC50, HIV-infected normal human blood lymphocytes (PBL's)
[4] = HIV-1-Protease-Inhibition IC50, purified HIV protease
[5] = purified HIV protease, read-out: HIV-1-Protease-Inhibition IC50
[6] = Human immunodeficiency virus 1, Lymphocyte, 72 h, read-out: PBL IC50, HIV-infected normal human blood lymphocytes (PBL's)

SMILES | HIV-1-Protease-Inhibition IC95 (HIV-1-Protease [1]) | other results
NC(=O)C[C@H](NC(=O)c1ccc2cc(Cl)ccc2n1)C(=O)N[C@@H](Cc1ccccc1)[C@H](O)CN1[C@H](C(F)(F)F)C[C@@H]2CCC[C@@H]21 [Beispiel 12] | 3,7 x 10^-9 Mol/l | 
NC(=O)C[C@H](NC(=O)c1cnc2ccccc2n1)C(=O)N[C@@H](Cc1ccccc1)[C@H](O)CN1[C@H](C(F)(F)F)C[C@@H]2CCC[C@@H]21 [Beispiel 1] | 1,9 x 10^-10 Mol/l | IC50 (HIV; [3]): 81.7 nM; IC50 (HIV-1-Protease [2]; [4]): 0.018 nM
NC(=O)C[C@H](NC(=O)COc1ccccc1-c1ccccc1)C(=O)N[C@@H](Cc1ccccc1)[C@H](O)CN1[C@H](C(F)(F)F)C[C@@H]2CCC[C@@H]21 [Beispiel 15] | 2,9 x 10^-8 Mol/l | IC50 (HIV-1-Protease [2]; [5]): 2.2 nM
NC(=O)C[C@H](NC(=O)c1ccc2ccccc2n1)C(=O)N[C@@H](Cc1ccccc1)[C@H](O)CN1[C@H](C(F)(F)F)C[C@@H]2CCC[C@@H]21 [Beispiel 3, (2R,3S)-3-(Chinolin-2-yl-L-asparaginyl)-amino-1-[(S,S,S)-3-trifluormethyl-2-azabicyclo[3.3.0]octan-2-yl}-2-hydroxy-4-phenyl-butan] | 2,2 x 10^-8 Mol/l | IC50 (HIV; [6]): 35 nM; IC50 (HIV-1-Protease [2]; [4]): 0.24 nM
NC(=O)C[C@H](NC(=O)c1ccc2cc(Cl)ccc2n1)C(=O)N[C@@H](Cc1ccccc1)[C@H](O)CN1[C@H](C(F)(F)F)C[C@@H]2CCC[C@@H]21 [Beispiel 13] | 2,5 x 10^-10 Mol/l | 
Cc1ccc2nc(C(=O)N[C@@H](CC(N)=O)C(=O)N[C@@H](Cc3ccccc3)[C@H](O)CN3[C@H](C(F)(F)F)C[C@@H]4CCC[C@@H]43)ccc2c1 [Beispiel 11] | 3,6 x 10^-11 Mol/l | 
Cc1cc2ncc(C(=O)N[C@@H](CC(N)=O)C(=O)N[C@@H](Cc3ccccc3)[C@H](O)CN3[C@H](C(F)(F)F)C[C@@H]4CCC[C@@H]43)nc2cc1C [Beispiel 9] | 2,6 x 10^-9 Mol/l | 
Cc1cc2ncc(C(=O)N[C@@H](CC(N)=O)C(=O)N[C@@H](Cc3ccccc3)[C@H](O)CN3[C@H](C(F)(F)F)C[C@@H]4CCC[C@@H]43)nc2cc1C [Beispiel 8] | 3,2 x 10^-6 Mol/l | 
Cc1c(O)cccc1C(=O)N[C@@H](CC(N)=O)C(=O)N[C@@H](Cc1ccccc1)[C@H](O)CN1[C@H](C(F)(F)F)C[C@@H]2CCC[C@@H]21 [Beispiel 16] | 2,7 x 10^-6 Mol/l | IC50 (HIV-1-Protease [2]; [5]): 200 nM
NC(=O)C[C@H](NC(=O)COc1ccccc1-c1ccccc1)C(=O)N[C@@H](Cc1ccccc1)[C@H](O)CN1[C@H](C(F)(F)F)C[C@@H]2CCC[C@@H]21 [Beispiel 14] | 1,8 x 10^-7 Mol/l | IC50 (HIV; [6]): 600 nM; IC50 (HIV-1-Protease [2]; [5]): 3.5 nM
Cc1ccc2nc(C(=O)N[C@@H](CC(N)=O)C(=O)N[C@@H](Cc3ccccc3)[C@H](O)CN3[C@H](C(F)(F)F)C[C@@H]4CCC[C@@H]43)ccc2c1 [Beispiel 10] | 3,1 x 10^-7 Mol/l | 
NC(=O)C[C@H](NC(=O)c1ccc2ccccc2n1)C(=O)N[C@@H](Cc1ccccc1)[C@H](O)CN1[C@H](C(F)(F)F)C[C@@H]2CCC[C@@H]21 [Beispiel 4, (2R,3S)-3-(Chinolin-2-yl-L-asparaginyl)-amino-1-[(S,S,S)-3-trifluormethyl-2-azabicylco[3.3.0]octan-2-yl}-2-hydroxy-4-phenyl-butan Hydrochlorid] | 3,3 x 10^-8 Mol/l | IC50 (HIV; [3]): 22.5 nM; IC50 (HIV-1-Protease [2]; [4]): 0.6 nM
Cc1cnc(C)c(COC(=O)N[C@@H](CC(N)=O)C(=O)N[C@@H](Cc2ccccc2)[C@H](O)CN2[C@H](C(F)(F)F)C[C@@H]3CCC[C@@H]32)c1 [Beispiel 17] | 3,7 x 10^-5 Mol/l | IC50 (HIV-1-Protease [2]; [5]): 1900 nM
NC(=O)C[C@H](NC(=O)c1cnc2ccccc2n1)C(=O)N[C@@H](Cc1ccccc1)[C@H](O)CN1[C@H](C(F)(F)F)C[C@@H]2CCC[C@@H]21 [Beispiel 2] | 3,6 x 10^-11 Mol/l | IC50 (HIV; [3]): 38.5 nM; IC50 (HIV-1-Protease [2]; read-out: HIV-1-Protease-Inhibition IC50, purified HIV protease): 0.017 nM
